Reference: US12312325B2, “Methods and compounds useful in the synthesis of an AAK1 inhibitor” (Lexicon Pharmaceuticals, Inc., priority 2022, dated 2025)
Counter-ions that a name gives are not always drawn. Blank lines part the entries; values can stand above or below the compound they belong to.

What was measured:
[1] = storage stability of the crystalline form; format: physicochemical; settings: stored at 40° C. and 75% relative humidity for up to four weeks
Description: (§1) Instead, the melting of Form I is observed to recrystallize to another, metastable form having a melting point of about 172.5° C.

[2] = water solubility; format: physicochemical; settings: at 25° C.
Description: as §1

[3] = test system: PC12 cells; settings: treatment with the kinase inhibitor; cited from earlier work

- water solubility ([2]; listed as Form I): 26.8 mg/mL
SMILES: CC(C)C[C@](C)(N)COc1ccc(-c2ccnc(C(F)F)c2)nc1C(F)F [Compound K, ((S)-1-((2′,6-bis(difluoromethyl)-[2,4′-bipyridin]-5-yl)oxy)-2,4-dimethylpentan-2-aminiumdihydrogen phosphate]
- stability on storage (form, morphology, purity) [1]: neither the form itself, its morphology, nor its purity changed

SMILES: COC(=O)[C@@]1(O)C[C@H]2O[C@]1(C)n1c3ccccc3c3c4c(c5c6ccccc6n2c5c31)C(=O)NC4 [Compound K252a, K252a]
- Neuregulin-1 induced neurite outgrowth [3]: potentiation of Neuregulin-1 induced neurite outgrowth

- water solubility ([2]; listed as hydrochloride salt of Compound J, hydrochloride): 2.9 mg/mL
SMILES: CC(C)C[C@](C)(N)COc1ccc(-c2ccnc(C(F)F)c2)nc1C(F)F [Compound S, (S)-1-((2′,6-bis(difluoromethyl)-[2,4′-bipyridin]-5-yl)oxy)-2,4-dimethylpentan-2-amine hydrochloride]
